From PMC5915149, “The role of oxidative stress in activity of anticancer thiosemicarbazones” (Oncotarget, 2018)
Like-named read-outs stand apart in the source and are kept apart here.

Assays:
[1] = test system: NHDF; parameters: method as in PMID 25329549; details: 96 h incubation, MTS; cited from earlier work
[2] = test system: HCT116 cells; assay: Cell cycle assay (Muse Cell-Cycle Kit); type: cell-based, human; details: HCT116, TSC 1 µM, 48 h
Method: The HCT116 cells were seeded in 3 cm Petri dishes (Nunc) at a density of 0.25·10^6 cells/well and incubated at 37° C for 24 h. […] After a 48 h treatment, assays were performed using a Muse Cell-Cycle Kit (Millipore) according to the manufacturer’s instructions. Briefly, cells were collected, washed with cold PBS and centrifuged at 300 g. Then, the cells were fixed in ice cold 70% ethanol and stored at –20° C overnight. Afterwards, the cells were centrifuged and resuspended in 200 μL of Muse™ Cell Cycle Reagent and incubated for 30 min at room temperature in the dark. After staining, the cells were processed for cell cycle analysis using a Muse Cell Analyzer (Millipore). The experiments were performed at least three times.

[3] = test system: HCT116 cells; assay: Time dependent measurement of ROS level; type: cell-based, human; details: 1 µM; 3, 6, 9, 12, 24 h
Method: To determine the intracellular levels of ROS, HCT116 cells were seeded onto black 96-well plates (Corning) at a density of 9,000 cells/well and incubated at 37° C. After an overnight incubation, the solutions of the tested compounds: 1a-c, 2 a-b, 3 a-c, Dp44mT (1 μM) and DOX (5 μM) were added and incubated for 3, 6, 9, 12, and 24 h in a kinetic experiment. The generation of ROS was measured using a CellROX® Green Reagent (Molecular Probes™). Additionally, the quantity of cells in each well was determined using Hoechst 33342 (Molecular Probes™). The solutions of the tested compounds were removed and 100 µL of CellROX Green Reagent and Hoechst 33342 at a final concentration of 5 μM were added to each well. Then, the cells were incubated for 30 min at 37° C. The fluorescence was measured using a multi-plate reader (Synergy 4, Bio Tek) at 485 nm excitation and a 520 nm emission for CellROX Green Reagent and a 345 nm excitation laser and a 485 nm emission filter for Hoechst 33342. The experiments were performed three to four times. ROS levels were expressed as the percentage of the control cells level.

[4] = test system: MCF-7; assay: MTS antiproliferative assay, MCF-7 (with or without added metal ions); type: cell-based, human
Method: The cells were seeded in 96-well plates (Nunc) at a density of 3,500 cells/well (HCT116 and MCF-7) and 3,000 cells/well (NHDF) and incubated at 37° C for 24 h. The assay was performed following a 96 h incubation with varying concentrations of the compounds that were being tested. Then, 20 µL of CellTiter 96® AQueous One Solution-MTS (Promega) was added to each well (with 100 µL DMEM without phenol red) and incubated for 1 h at 37° C. The optical densities of the samples were analyzed at 490 nm using a multi-plate reader (Synergy 4, Bio Tek). Results were expressed as a percentage of the control and calculated as the inhibitory concentration (IC50) values (using GraphPad Prism 5). The IC50 parameter was defined as the compound concentration that was necessary to reduce the proliferation of cells to 50% of the untreated control. Each individual compound was tested in triplicate in a single experiment with each experiment being repeated three or four times.
The HCT116 and MCF-7 cells were seeded in 96-well plates (Nunc) at a density of 3,500 cells/well and incubated at 37° C for 24 h. The MTS assay was performed following a 96 h incubation with varying concentrations of the tested compounds. Additionally, a 20 µM solution of CuSO4, FeSO4 or FeCl3 was added into wells with the tested compounds. The results were expressed as a percentage of the control and calculated as the inhibitory concentration (IC50) values using GraphPad Prism 5. Each individual compound was tested in triplicate in a single experiment with each experiment being repeated three times.

IC50 ([4]; 96 h, 20 µM CuSO4 added, read-out: Activity - IC50 MCF-7+ Cu^2+): 1.55 ± 0.55 nM
IC50 ([4]; 96 h, 20 µM FeCl3 added, read-out: Activity - IC50 MCF-7+ Fe^3+): 8.96 ± 1.81 nM
IC50 ([4]; 96 h incubation, MTS, read-out: Activity - IC50 MCF-7): 12 ± 2.04 nM
SMILES: S=C(NN=C(c1ccccn1)c1ccccn1)N1CCN(c2ccccc2)CC1 [Compound 3a]
IC50 [1]: 1.73 ± 0.71 nM
cells in S phase [2]: 33–35%
cells in G2/M phase ([2]; untreated 7%): 17%
level of ROS, normalized to untreated cells [3]: strongest effect
improvement in cytotoxicity after interacting with Cu^2+ ([4]; MCF-7 cells, 20 µM CuSO4): eight-fold
